Test results from PMC6154995, “Heme-dependent Inactivation of 5-Aminolevulinate Synthase from Caulobacter crescentus” (Scientific Reports, 2018).

How the values were obtained:
Type in all cases: binding
[1] = target: T1, 5-aminolevulinate synthase (cALAS) (Caulobacter vibrioides, UniProt Q9A8J8); assay: UV/Vis and CD at […] nm; HPLC of PLP from purified enzyme; parameters: gene CC_1355; recombinant full-length cALAS, C-terminal His6-tag
[2] = target: T2, 5-aminolevulinate synthase (cALAS) (Caulobacter vibrioides, UniProt Q9A8J8, D214A); assay: UV/Vis titration of apoenzyme with PLP
T2 construct: gene CC_1355; D214A apo-cALAS
T2 sequence (Q9A8J8 1-408 D214A): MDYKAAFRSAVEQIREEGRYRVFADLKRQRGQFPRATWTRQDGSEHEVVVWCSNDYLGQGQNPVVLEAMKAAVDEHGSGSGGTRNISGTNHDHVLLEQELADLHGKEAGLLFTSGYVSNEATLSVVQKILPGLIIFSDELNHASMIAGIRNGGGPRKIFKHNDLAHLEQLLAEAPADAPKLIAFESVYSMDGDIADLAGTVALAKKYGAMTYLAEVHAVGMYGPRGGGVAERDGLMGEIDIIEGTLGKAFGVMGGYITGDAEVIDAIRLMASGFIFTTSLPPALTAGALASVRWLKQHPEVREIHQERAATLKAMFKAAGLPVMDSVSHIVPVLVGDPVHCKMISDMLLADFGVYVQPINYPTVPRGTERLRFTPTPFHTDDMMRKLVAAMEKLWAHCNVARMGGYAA

[3] = target: T3, 5-aminolevulinate synthase (cALAS) (Caulobacter vibrioides, UniProt Q9A8J8, H340A); assay: apparent Kd from spectrophotometric titration; settings: read-out: KdGly,app /
T3 construct: gene CC_1355; recombinant cALAS H340A, PLP form
T3 sequence (Q9A8J8 1-408 H340A): as the sequence (Q9A8J8 1-408 D214A) above, with A214D, H340A counted along it

[4] = target: T1, 5-aminolevulinate synthase (cALAS); assay: UV/Vis spectrophotometric titration; parameters: gene CC_1355; recombinant full-length cALAS, PLP form
[5] = target: T4, 5-aminolevulinate synthase (cALAS) (Caulobacter vibrioides, UniProt Q9A8J8, C398A/H340A); assay: apparent Kd from spectrophotometric titration; settings: read-out: KdGly,app /
T4 construct: gene CC_1355; recombinant cALAS H340A/C398A, PLP form
T4 sequence (Q9A8J8 1-408 H340A/C398A): as the sequence (Q9A8J8 1-408 D214A) above, with A214D, H340A, C398A counted along it

[6] = target: T5, 5-aminolevulinate synthase (cALAS) (Caulobacter vibrioides, UniProt Q9A8J8, C398A); assay: apparent Kd from spectrophotometric titration; settings: read-out: KdGly,app /
T5 construct: gene CC_1355; recombinant cALAS C398A, PLP form
T5 sequence (Q9A8J8 1-408 C398A): as the sequence (Q9A8J8 1-408 D214A) above, with A214D, C398A counted along it

T1 sequence (Q9A8J8 1-408): as the sequence (Q9A8J8 1-408 D214A) above, with A214D counted along it

| Compound | UV/Vis and CD at 424 nm; HPLC of PLP from purified enzyme [1] | UV/Vis titration of apoenzyme with PLP [2] | Kd [3] [mM] | Kd [4] [mM] | Kd [5] [mM] | Kd [6] [mM] |
| --- | --- | --- | --- | --- | --- | --- |
| Cc1ncc(COP(=O)(O)O)c(C=O)c1O [pyridoxal 5′-phosphate] | a peak for PLP was observed for the PLP form of cALAS | upon PLP titration, cALAS displayed spectral changes supporting internal Schiff-base formation between PLP and Lys248 |  |  |  |  |
| NCC(=O)O [glycine] |  |  | 11.5 ± 1.17 | 10.6 ± 1.35 | 6.46 ± 1.5 | 13.6 ± 3.1 |
